pKi: −log10 of the molar value. Some results are limits rather than exact numbers.

In one series the target is Cytochrome P450 2C9 (Homo sapiens, UniProt P11712). Put plainly: Inhibition of CYP2C9 (unknown origin) up to 50 uM. In kind it is ADME.
For the next series, the target named is Cytochrome P450 2D6 (Homo sapiens, UniProt P10635). Put plainly: Inhibition of CYP2D6 (unknown origin) up to 50 uM. The class given is ADME.
The next series has as its target T1, Coagulation factor XII (Homo sapiens, UniProt P00748).
T1 sequence (P00748 whole entry): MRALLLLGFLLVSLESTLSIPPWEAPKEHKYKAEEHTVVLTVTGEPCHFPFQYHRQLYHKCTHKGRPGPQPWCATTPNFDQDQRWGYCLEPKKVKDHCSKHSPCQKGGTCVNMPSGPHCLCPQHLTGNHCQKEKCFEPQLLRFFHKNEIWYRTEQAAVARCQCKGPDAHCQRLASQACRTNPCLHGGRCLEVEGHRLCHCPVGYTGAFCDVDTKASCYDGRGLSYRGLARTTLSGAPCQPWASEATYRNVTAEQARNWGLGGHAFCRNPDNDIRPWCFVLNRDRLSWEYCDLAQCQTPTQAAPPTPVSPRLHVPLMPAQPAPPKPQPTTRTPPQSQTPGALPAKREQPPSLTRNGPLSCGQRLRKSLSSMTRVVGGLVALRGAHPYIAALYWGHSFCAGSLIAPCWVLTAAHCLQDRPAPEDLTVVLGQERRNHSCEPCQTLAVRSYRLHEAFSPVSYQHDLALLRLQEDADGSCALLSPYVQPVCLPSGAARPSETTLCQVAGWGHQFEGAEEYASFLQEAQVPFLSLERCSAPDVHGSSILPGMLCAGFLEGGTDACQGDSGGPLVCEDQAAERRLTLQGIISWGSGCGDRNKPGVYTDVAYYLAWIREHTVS
Kind of series: Inhibition of factor 12a (unknown origin).

A further series concerns the target Cytochrome P450 3A4 (Homo sapiens, UniProt P08684). Put plainly: Inhibition of CYP3A4 (unknown origin) up to 50 uM. In kind it is ADME.
In the next series the target is Coagulation factor X (Homo sapiens, UniProt P00742). Put plainly: Inhibition of factor 10a (unknown origin).
A further series has as its target Coagulation factor IX (Homo sapiens, UniProt P00740). Put plainly: Inhibition of factor 9a (unknown origin).
For the next series, the target named is T2, Coagulation factor VII (Homo sapiens, UniProt P08709).
T2 sequence (P08709 whole entry): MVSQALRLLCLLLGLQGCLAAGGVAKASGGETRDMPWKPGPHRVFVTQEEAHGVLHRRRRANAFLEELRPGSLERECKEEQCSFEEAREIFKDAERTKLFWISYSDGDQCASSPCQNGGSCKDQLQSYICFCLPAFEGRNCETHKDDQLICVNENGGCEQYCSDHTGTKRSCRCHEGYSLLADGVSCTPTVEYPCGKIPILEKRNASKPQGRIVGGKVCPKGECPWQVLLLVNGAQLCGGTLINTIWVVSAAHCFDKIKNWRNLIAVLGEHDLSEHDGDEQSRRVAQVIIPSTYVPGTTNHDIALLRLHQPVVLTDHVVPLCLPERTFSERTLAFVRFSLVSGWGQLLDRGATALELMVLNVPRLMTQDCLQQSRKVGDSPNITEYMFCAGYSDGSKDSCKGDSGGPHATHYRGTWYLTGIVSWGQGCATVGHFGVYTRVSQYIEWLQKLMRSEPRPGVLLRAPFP
Kind of series: Inhibition of factor 7a (unknown origin).

The next series addresses Trypsin (Homo sapiens, UniProt P07477+P07478+P35030). Kind of series: Inhibition of trypsin (unknown origin). The class given is protein assay.
In the next series the target is Prothrombin (Homo sapiens, UniProt P00734). Put plainly: Inhibition of thrombin (unknown origin).
Series [1] can be described thus: Volume of distribution in dog at 0.3 mg/kg, iv. In kind it is ADME, organism-based, Canis lupus familiaris. The arrangement: dose 0.3 mg/kg, route intravenous. Conditions: in vivo; call rule not given here.
A short description of series [2]: AUC in dog at 0.3 mg/kg, iv. The class given is ADME, organism-based, Canis lupus familiaris. More on the design: dose 0.3 mg/kg, route intravenous. Conditions: plasma.
A short description of series [3]: Clearance in dog at 0.3 mg/kg, iv. More on the design: dose 0.3 mg/kg, route intravenous. The class given is ADME, organism-based, Canis lupus familiaris. Conditions: in vivo.
Series [4] in a line: Metabolic stability in dog hepatocytes assessed as compound remaining after 90 mins. The class given is ADME, cell-based, Canis lupus familiaris, Hepatocyte. To be noted: read-out: Stability.
A short description of series [5]: Half life in dog at 0.3 mg/kg, iv. The arrangement: dose 0.3 mg/kg, route intravenous. The class given is ADME, organism-based, Canis lupus familiaris. To be noted: in vivo.

Sequence of Coagulation factor IX (P00740 47-191 limits assumed): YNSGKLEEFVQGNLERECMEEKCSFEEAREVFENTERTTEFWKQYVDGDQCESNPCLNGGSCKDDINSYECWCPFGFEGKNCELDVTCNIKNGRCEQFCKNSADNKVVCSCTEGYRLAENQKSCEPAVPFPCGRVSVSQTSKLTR
Sequence of Coagulation factor IX (P00740 227-461 limits assumed): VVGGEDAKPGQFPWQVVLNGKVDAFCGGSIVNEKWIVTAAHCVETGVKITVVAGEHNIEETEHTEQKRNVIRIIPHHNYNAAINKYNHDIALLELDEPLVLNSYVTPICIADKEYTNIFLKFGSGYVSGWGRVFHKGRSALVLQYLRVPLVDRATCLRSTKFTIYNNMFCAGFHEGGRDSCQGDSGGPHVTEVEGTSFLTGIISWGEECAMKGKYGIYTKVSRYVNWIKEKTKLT
Sequence of Cytochrome P450 2D6 (P10635 whole entry): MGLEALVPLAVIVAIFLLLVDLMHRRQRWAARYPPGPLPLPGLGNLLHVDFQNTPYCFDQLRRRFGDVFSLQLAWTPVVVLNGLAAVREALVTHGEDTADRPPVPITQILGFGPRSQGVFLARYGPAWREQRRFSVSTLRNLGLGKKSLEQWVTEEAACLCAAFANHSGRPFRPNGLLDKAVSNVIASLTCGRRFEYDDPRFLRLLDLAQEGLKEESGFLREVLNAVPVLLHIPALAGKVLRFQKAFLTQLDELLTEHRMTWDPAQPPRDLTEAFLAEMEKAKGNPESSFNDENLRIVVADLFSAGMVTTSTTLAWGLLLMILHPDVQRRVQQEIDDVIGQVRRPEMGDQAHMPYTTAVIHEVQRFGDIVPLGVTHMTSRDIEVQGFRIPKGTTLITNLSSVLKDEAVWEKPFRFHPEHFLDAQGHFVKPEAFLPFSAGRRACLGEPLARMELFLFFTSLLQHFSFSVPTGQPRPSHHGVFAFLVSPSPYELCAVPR
Sequence of Cytochrome P450 2C9 (P11712 whole entry): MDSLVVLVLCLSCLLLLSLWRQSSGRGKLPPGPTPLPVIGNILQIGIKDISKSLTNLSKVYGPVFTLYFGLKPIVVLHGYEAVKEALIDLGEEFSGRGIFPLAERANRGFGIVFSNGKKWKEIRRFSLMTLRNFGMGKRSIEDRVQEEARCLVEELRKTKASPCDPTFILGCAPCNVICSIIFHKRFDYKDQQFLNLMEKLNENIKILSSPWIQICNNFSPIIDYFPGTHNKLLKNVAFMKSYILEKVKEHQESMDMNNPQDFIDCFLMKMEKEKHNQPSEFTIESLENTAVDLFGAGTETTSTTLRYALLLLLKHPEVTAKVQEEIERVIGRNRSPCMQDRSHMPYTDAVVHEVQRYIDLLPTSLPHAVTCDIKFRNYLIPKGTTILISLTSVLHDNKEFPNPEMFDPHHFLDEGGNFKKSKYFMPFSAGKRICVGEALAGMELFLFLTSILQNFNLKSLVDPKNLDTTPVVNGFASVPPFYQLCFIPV
Sequence of Coagulation factor X (P00742 41-179 limits assumed): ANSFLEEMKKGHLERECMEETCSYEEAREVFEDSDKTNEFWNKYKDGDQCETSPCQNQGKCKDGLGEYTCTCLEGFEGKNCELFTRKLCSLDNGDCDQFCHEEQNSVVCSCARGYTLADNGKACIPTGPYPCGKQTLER
Sequence of Coagulation factor X (P00742 235-488 limits assumed): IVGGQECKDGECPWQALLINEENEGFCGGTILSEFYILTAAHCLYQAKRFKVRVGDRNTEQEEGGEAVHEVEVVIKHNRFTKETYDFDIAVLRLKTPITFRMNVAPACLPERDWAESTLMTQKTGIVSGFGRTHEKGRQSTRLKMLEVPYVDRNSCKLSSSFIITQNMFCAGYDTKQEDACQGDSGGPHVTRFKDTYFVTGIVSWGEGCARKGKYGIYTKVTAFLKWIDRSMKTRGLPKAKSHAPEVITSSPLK
Sequence of Cytochrome P450 3A4 (P08684 whole entry): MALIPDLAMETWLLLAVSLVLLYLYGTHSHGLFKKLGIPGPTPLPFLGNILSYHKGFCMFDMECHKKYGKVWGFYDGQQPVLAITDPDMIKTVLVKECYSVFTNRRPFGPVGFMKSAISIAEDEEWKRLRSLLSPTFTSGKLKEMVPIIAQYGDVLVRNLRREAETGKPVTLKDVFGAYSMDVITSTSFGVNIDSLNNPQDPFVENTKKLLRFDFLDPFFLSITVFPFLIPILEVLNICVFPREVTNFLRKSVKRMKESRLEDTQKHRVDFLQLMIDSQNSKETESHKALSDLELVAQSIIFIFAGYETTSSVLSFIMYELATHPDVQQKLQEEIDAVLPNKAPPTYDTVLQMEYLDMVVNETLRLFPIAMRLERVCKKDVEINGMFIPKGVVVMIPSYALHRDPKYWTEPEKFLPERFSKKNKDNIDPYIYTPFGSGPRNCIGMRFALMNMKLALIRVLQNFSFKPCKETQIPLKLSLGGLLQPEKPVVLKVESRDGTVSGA

For the compound `CC(C)(C)[C@@H](O)C(=O)N1CCNC[C@H]1C(=O)NCc1cc(Cl)ccc1CN.O=C(O)C(F)(F)F`, the “inhibition (INH)” value on Cytochrome P450 2C9, against Cytochrome P450 2D6 and against Cytochrome P450 3A4 was “Not Active” throughout. Moreover, the pKi at Coagulation factor XII is less than 4.82; at Coagulation factor X, 5.36; at Coagulation factor IX, 4.82; on Coagulation factor VII, less than 4.82. The compound further returned a Ki at Trypsin of 15 µM.

As to `CC(C)(C)[C@@H](O)C(=O)N1CCS(=O)(=O)C[C@H]1C(=O)NCc1cc(Cl)ccc1CN.O=C(O)C(F)(F)F`, the “inhibition (INH)” value against Cytochrome P450 2C9, against Cytochrome P450 2D6 and on Cytochrome P450 3A4 was “Not Active” in each case. Also, the pKi on Coagulation factor XII was less than 4.82; at Coagulation factor X, 5.51; at Coagulation factor VII it was less than 4.82. At Trypsin, this compound had a Ki of 15 µM.

For `CC(C)(C)[C@@H](O)C(=O)N1CC[S+]([O-])C[C@H]1C(=O)NCc1cc(Cl)ccc1CN.O=C(O)C(F)(F)F` (stereo partly specified), the “inhibition (INH)” value at Cytochrome P450 2C9, against Cytochrome P450 2D6 and against Cytochrome P450 3A4 was “Not Active” each time.

As to `CC(C)(C)[C@@H](O)C(=O)N1CCC[C@H]1C(=O)NCc1cc(Cl)ccc1CN.O=C(O)C(F)(F)F`, the pKi is 8.82 at Prothrombin; less than 4.82 on Coagulation factor XII; 5.85 on Coagulation factor X; less than 5.52 on Coagulation factor IX; less than 4.82 on Coagulation factor VII. Moreover, the “inhibition (INH)” value on Cytochrome P450 2C9, against Cytochrome P450 2D6 and at Cytochrome P450 3A4 was “Not Active” throughout. Moreover, the Vd in [1] came to 1.9 L/kg. The same compound came in with an AUC in series [2] of 10 µM·h. The same compound gave a clearance in [3] of 3.5 mL/min/kg. Also, in [4], the remaining at 1.5 h stood at 93%. In series [5], the half-life was 6.8 h. The compound further yielded a Ki on Trypsin of 5.6 µM.

Take `CC(C)(C)[C@@H](O)C(=O)N1CCSC[C@H]1C(=O)NCc1cc(Cl)ccc1CN.O=C(O)C(F)(F)F`: the “inhibition (INH)” value on Cytochrome P450 2C9, against Cytochrome P450 2D6 and against Cytochrome P450 3A4 was “Not Active” each time. This compound also gave a Vd in series [1] of 2.3 L/kg. Also, the results for the pKi on Coagulation factor XII, at Coagulation factor X and on Coagulation factor VII were less than 4.82, 6.05 and less than 4.82, respectively. This compound returned an exposure (AUC) in series [2] of 1 µM·h. Moreover, the clearance in series [3] was 12.8 mL/min/kg. Further, in [4], the remaining at 1.5 h worked out at 76%. The half-life in series [5] is 2.7 h. The inhibitory constant (Ki) at Trypsin worked out at 9.4 µM.

As for `CC(C)(C)[C@@H](O)C(=O)N1CCOC[C@H]1C(=O)NCc1cc(Cl)ccc1CN.O=C(O)C(F)(F)F`, the “inhibition (INH)” value against Cytochrome P450 2C9, on Cytochrome P450 2D6 and against Cytochrome P450 3A4 was “Not Active” in each case. The pKi was less than 4.82 on Coagulation factor XII, 5.41 on Coagulation factor X, 4.82 at Coagulation factor IX and less than 4.82 at Coagulation factor VII. Moreover, the Ki on Trypsin turned out to be 15 µM.

In the case of `CC(C)(C)[C@@H](O)C(=O)N1CCCC[C@H]1C(=O)NCc1cc(Cl)ccc1CN.O=C(O)C(F)(F)F`, the “inhibition (INH)” value against Cytochrome P450 2C9, at Cytochrome P450 2D6 and against Cytochrome P450 3A4 was “Not Active” throughout. Besides, the negative logarithm of the Ki (pKi) was less than 4.82 at Coagulation factor XII, 5.74 on Coagulation factor X and less than 4.82 on Coagulation factor VII. In addition, on Trypsin, the Ki came out at 10.6 µM.

For the compound `CN1CCN(C(=O)[C@H](O)C(C)(C)C)[C@H](C(=O)NCc2cc(Cl)ccc2CN)C1.O=C(O)C(F)(F)F`, the “inhibition (INH)” value on Cytochrome P450 2C9, at Cytochrome P450 2D6 and at Cytochrome P450 3A4 was “Not Active” throughout. Moreover, the pKi was less than 4.82 on Coagulation factor XII, 5.43 at Coagulation factor X and less than 4.82 on Coagulation factor VII. Besides, the Ki at Trypsin is 15 µM.
